Results published in US20240082255A1 (Board of Regents, The University of Texas System, priority 2017, published 2024).
Entries after “also recorded” stand apart in the source; their conditions may differ.

How the values were obtained:
MDA-MB-231 cells [1] = assay: transwell invasion assay; assay type: cell-based; details: MDA-MB-231, 20 μM for 48 hrs
[2] = system: MDA-MB-231-GFP-luc cells implanted into the mammary fat pad; assay: orthotopic xenograft study, imipramine and olaparib; assay type: in vivo, athymic nude mice; details: weeks 4 and 5; imipramine 40 mg/kg or olaparib 50 mg/kg body weight
Method: To evaluate whether imipramine can sensitize the response to olaparib treatment, an orthotopic xenograft study was performed. […] Mice were treated for 4 weeks starting week 1 after tumor implantation. Tumor volumes were measured twice a week.

[3] = system: MDA-MB-231 cells implanted into the mammary fat pad; details: 16 escalated to 20 or 32 escalated to 40 mg/kg body weight, ip daily for thirty days
Method: MDA-MB-231 cells were implanted into the mammary fat pad of athymic nude mice. […] After the 30th day, the mice were euthanized, and the tumors were isolated and processed for molecular and immunohistologic studies. Tumor volume was calculated by using the formula 0.5236L1 (L2)^2, where L1 is long axis and L2 is the short axis of the tumor.

IL-10 = details: Mukherjee et al., 2014; cited from earlier work
IL-12 = details: Mukherjee et al., 2014; cited from earlier work
MDA-MB-231 cells [4] = assay: RNA seq gene expression profiling; assay type: cell-based; details: 96 hours
Method: RNA samples were further processed for gene expression profiling using Illumina HiSeq 2000 following manufacturer's standard protocol (Illumina, San Diego, CA). Differential expression analysis was performed by using DEseq, and significant genes with at least 1.5-fold change with p<0.05 were chosen for analysis. Using all significant and differentially expressed genes from the RNA-seq data, Ingenuity Pathway Analysis software (IPA) was used to interpret the biological pathways. Total protein extracted from cell lines were subjected to western blot analysis.

MDA-MB-231 cells [5] = assay: transwell migration assay; assay type: cell-based; details: MDA-MB-231, 20 μM for 48 hrs
MDA-MB-231 cells [6] = assay: alamar Blue cell viability assay; assay type: cell-based; details: MDA-MB-231, imipramine 5-100 μM, 96 hours
Method: (§1) The data shown are mean±SEM. *, P<0.05; **, P<0.01; ***, P<0.001; ****, P<0.0001 versus control group, t-test.
(§2) Cell viability was assessed using alamar Blue cell viability assay.

MDA-MB-468 cells = assay: alamar Blue cell viability assay; assay type: cell-based; details: MDA-MB-468, imipramine 5-100 μM, 96 hours
Method: as §1, §2

## CN(C)CCCN1c2ccccc2CCc2ccccc21 [imipramine]
MDA-MB-231 cells [1]
  invasion of breast cancer cells compared with vehicle control: reduction
[2]
  difference in tumor growth, control vs single agent: significant difference
[3]
  tumor growth (mean tumor volume) compared to vehicle control: significantly reduced
  tumor size compared to vehicle control: significantly reduced
  tumor weight compared to vehicle control: reduced tumor weight in a dose dependent manner; also recorded: significantly reduced
IL-10
  effect on IL-10: inhibit
IL-12
  effect on levels of IL-12: elevate
MDA-MB-231 cells [4]
  expression of cell cycle and DNA repair genes FOXM1, CyclinD1, PLK1, SKP2, XRCC3 and RAD51: reduced expression
MDA-MB-231 cells [5]
  migration of breast cancer cells compared with vehicle control: reduction
MDA-MB-231 cells [6]
  viability of breast cancer cells compared to vehicle-treated cells: significantly reduced viability
MDA-MB-468 cells
  viability of breast cancer cells compared to vehicle-treated cells: significantly reduced viability

## O=C(c1cc(Cc2n[nH]c(=O)c3ccccc23)ccc1F)N1CCN(C(=O)C2CC2)CC1 [olaparib]
[2]
  difference in tumor growth, control vs single agent: significant difference
